Paper PMC8997995, “Amphiphilic Cell-Penetrating Peptides Containing Natural and Unnatural Amino Acids as Drug Delivery Agents” (Cells, 2022)
Non-standard residues stand in square brackets, D forms with d. Residues, ends and D or L forms follow the SMILES beside them. Dip = N[C@H](C(=O)O)C(c1ccccc1)c1ccccc1

Experiments:
LLC-PK1 cells = assay: In vitro cytotoxicity (MTS) in LLC-PK1 cells; assay type: cell-based, pig; settings: LLC-PK1, 10 µM, 24 h and 72 h incubation
Protocol: SK-OV-3, CCRF-CEM, HEK-293, MDA-MB-468, LLC-PK1, and MES-SA were used to determine the cytotoxicity of the synthesized linear and cyclic peptides. About 5000, 10,000, and 50,000 cells were seeded for SK-OV-3, HEK-293, and CCRF-CEM cells, respectively, in 0.1 mL of medium per well of 96-well plates. […]
Adhesive cells were detached with 0.05% trypsin/EDTA after 15 min. […] The cell viability was measured by utilizing Multi-Mode Microplate Reader (SpectraMax M5 model, Molecular Devices, San Jose, CA, USA) after adding 20 µL of the MTS reagent to each well and incubating for 3 additional hours. […] The percentage of cell viability was calculated using the following equation:(1) =(Average OD values of samples treated with the compound /Average OD values of no treatment samples )∗100

CCRF-CEM cells = assay: Cellular uptake by flow cytometry in CCRF-CEM cells; assay type: cell-based, human; settings: 3 h
Protocol: CCRF-CEM and SK-OV-3 cells were used to measure the cellular uptake of a fluorescent-labeled phosphopeptide (F’-GpYEEI) (2 µM), stavudine (F’-d4T) (2 µM) lamivudine (F’-3TC) (1–2 µM), emtricitabine (F’-FTC) (2 µM), and siRNA (F’-siRNA) (36 nM) with the least toxic concentration for each linear and the cyclic peptide (10 µM). The uptake was measured in the presence and absence of the peptides. The SK-OV-3 (0.5 million) and CCRF-CEM (a million) cells were incubated in each well of 6-well plates with the synthesized peptide and the fluorescent-labeled compound in one well. Another well contained the fluorescent-labeled compound alone for 3 h in an incubator (37 °C in a humidified atmosphere of 5% CO2). […] For more details, please refer back to the cytotoxicity method described above.
The cells were transferred to FACS analysis tubes after being washed with phosphate-buffered saline (PBS). The cells were centrifuged 2500 RPM for 5 min with Fisher Scientific accuSpin Micro 17 to precipitate the cells and to allow replacing the supernatant. The cells were then vortexed with Nerl Blood Bank Saline pH 7–7.2 (flow cytometry buffer) and transferred to the tube through a sterile cell strainer 40 µm Nylon Mesh. Finally, the cells were resuspended in flow cytometry buffer and analyzed by flow cytometry (FACSVerse model, Becton Dickinson, San Jose, CA, USA) using the FITC channel and the BD FACSuite software. The device was washed before each experiment, and the flow rate was set at medium. Finally, the cells were analyzed by using FITC channel […] argon laser for the excitation and the emitted 519 nm fluorescence for detection. The data presented was based on the FITC-A mean intensity signal for 10,000 cells collected. All assays were performed in triplicates. Results were evaluated to determine whether the peptides are facilitating the fluorescence compound to cross the membrane.
To determine the mechanism of the cellular uptake, F’-[K(DipR)5] or the physical mixture of the F’-GpYEEI and [DipR]5 were used to measure the fluorescence in the treated CCRF-CEM cells. F’-[K(DipR)5] (5 or 10 µM) or the physical mixture of the F’-GpYEEI (2 µM) and [DipR]5 (5 or 10 µM) were incubated with CCRF-CEM cells over 3 h. After each incubation, the medium containing the peptide and cells was removed. The same protocol as the cellular uptake study was used to prepare the cells as described above. Finally, the cells were resuspended in the buffer and analyzed by flow cytometry using the FITC channel and the BD FACSuite software. The data presented was based on the percentage of FITC-A mean intensity signal for 10,000 cells collected. All assays were performed in triplicates.

[1] = Transmission electron microscopy, self-assembly; assay type: physicochemical; settings: TEM, 30 μM, dried on grid overnight, not stained
Protocol: Transmission electron microscopy (TEM) was done on a LVEM 5D Microscope model (Delong instruments, Brno, Czech Republic) samples were prepared on an Ultrathin Carbon Film on Lacey Carbon Support Film with 400 mesh copper from Ted Pella. Dilute solutions of 30 μM concentration were used for the TEM analysis. Samples were dropped on grids, evaporated overnight, and not stained. They were incubated for approximately 2 h after thawing from a freezer (0 to −18 °C). Samples were air-dried, and images were obtained with a LVEM5 (Delong Instruments, US) 5 keV field emission gun. The camera was Zyla 5.5 Scientific CMOS with specifications of exposure 50–200 [ms], pixel readout 200 MHz—lowest noise, dynamic range 12-bit (low noise), and summing 1.

For N=C(N)NCCC[C@@H]1NC(=O)[C@H](C(c2ccccc2)c2ccccc2)NC(=O)[C@H](CCCNC(=N)N)NC(=O)[C@H](C(c2ccccc2)c2ccccc2)NC(=O)[C@H](CCCNC(=N)N)NC(=O)[C@H](C(c2ccccc2)c2ccccc2)NC(=O)[C@H](CCCNC(=N)N)NC(=O)[C@H](C(c2ccccc2)c2ccccc2)NC(=O)[C@H](CCCNC(=N)N)NC(=O)[C@H](C(c2ccccc2)c2ccccc2)NC1=O [[DipR]5] (cyclo([Dip]R[Dip]R[Dip]R[Dip]R[Dip]R)), the cytotoxicity (LLC-PK1 cells) was “no significant cytotoxicity”, the “increase of cellular uptake of F′-3TC vs cargo alone” value (CCRF-CEM cells; F’-3TC 2 µM, peptide 10 µM, flow cytometry, n = 3) was 14 fold and the “increase of cellular uptake of F’-FTC vs cargo alone” value (CCRF-CEM cells; F’-FTC 2 µM, peptide 10 µM, flow cytometry, n = 3) was 13 fold. For the same compound, the “increase of cellular uptake of F’-GpYEEI” value (CCRF-CEM cells; F’-GpYEEI 2 µM, peptide 5 µM, n = 3) was 43 fold, the “cellular uptake of F’-GpYEEI relative to [R5K]W7A” value (CCRF-CEM cells; side-by-side comparison, F’-GpYEEI 2 µM, peptides 10 µM) was 5 fold and the “morphology of self-assembled structures” value [1] was “aggregation”. The “size of self-assembled structures” value [1] was ≤ 30 nm.
